Converted amounts (≈) assume the structure as drawn. Bridge positions count the residues as written; N and C are the ends. Square brackets hold non-standard residues; d marks the D form. Peptide text beside a SMILES is read from it. S5 = C=CCCC[C@](C)(N)C(=O)O

Data set [1] concerns Pseudomonas aeruginosa. Kind of data set: Antibacterial activity against Pseudomonas aeruginosa ATCC 27853 assessed as reduction in bacterial growth by broth microdilution method. It counts as functional.
For data set [2], the system named is Enterococcus faecium. Put plainly: Antibacterial activity against Enterococcus faecium ATCC 700221 assessed as reduction in bacterial cell growth by CLSI broth microdilution method. The data set is classed as functional.
The test system of data set [3] is Staphylococcus aureus. Kind of data set: Antibacterial activity against Staphylococcus aureus ATCC 25923 assessed as reduction in bacterial growth incubated for 24 hrs by serial dilution method. It counts as functional.
The nature of data set [4]: Hemolytic activity in human RBC assessed as hemolysis. It counts as toxicity, cell-based, Erythrocyte. The following applies: red blood cells.
The test system of data set [5] is Escherichia coli. Put plainly: Antibacterial activity against Escherichia coli ATCC 25922 assessed as bacterial growth inhibition measured after 48 hrs by resazurin assay. The data set is classed as functional.
Data set [6] concerns Escherichia coli. Kind of data set: Antibacterial activity against Escherichia coli ATCC 25922 assessed as reduction in bacterial growth by broth microdilution method. The data set is classed as functional.
In data set [7] the test system is Klebsiella pneumoniae. Put plainly: Antibacterial activity against Klebsiella pneumoniae. The data set is classed as functional.
Data set [8] in a line: Hemolytic activity in human RBC. It counts as toxicity, cell-based, Erythrocyte. The following applies: red blood cells.
For data set [9], the system named is Staphylococcus aureus. Put plainly: Antibacterial activity against Staphylococcus aureus ATCC 25923 assessed as reduction in bacterial growth incubated for 18 to 24 hrs by broth microdilution method. The following applies: time 18-24 hrs. It counts as functional.
Data set [10] concerns Enterococcus faecalis. Kind of data set: Antibacterial activity against Enterococcus faecalis assessed as reduction in microbial growth. It counts as functional.
Data set [11] deals with Bacillus subtilis. Put plainly: Antibacterial activity against Bacillus subtilis assessed as reduction in microbial growth. It counts as functional.
Data set [12] relates to Pseudomonas aeruginosa. Put plainly: Antibacterial activity against Pseudomonas aeruginosa ATCC 15442 assessed as growth inhibition. The data set is classed as functional.
For data set [13], the system named is Staphylococcus epidermidis. Kind of data set: Antibacterial activity against Staphylococcus epidermidis assessed as reduction in microbial growth. The data set is classed as functional.
Data set [14] relates to Acinetobacter baumannii. Put plainly: Antibacterial activity against Acinetobacter baumannii assessed as bacterial growth inhibition. The data set is classed as functional.
Data set [15] has as its system Staphylococcus aureus. Put plainly: Antibacterial activity against Staphylococcus aureus ATCC 29213 assessed as bacterial growth inhibition measured after 18 hrs by CLSI protocol based two-fold serial microdilution method. It counts as functional.
In data set [16] the test system is Enterococcus faecium. Kind of data set: Antibacterial activity against Enterococcus faecium ATCC 27270. It counts as functional.
Data set [17] relates to Staphylococcus aureus. Put plainly: Antibacterial activity against Staphylococcus aureus. It counts as functional.
Data set [18] concerns Pseudomonas aeruginosa. Kind of data set: Antibacterial activity against Pseudomonas aeruginosa assessed as reduction in bacterial growth by broth microdilution method. It counts as functional.
Data set [19] relates to Escherichia coli. Put plainly: Antibacterial activity against Escherichia coli ATCC 25922 assessed as reduction in bacterial growth. The data set is classed as functional.
The test system of data set [20] is Escherichia coli. Kind of data set: Antibacterial activity against Escherichia coli. The data set is classed as functional.
In data set [21] the test system is Staphylococcus aureus. Put plainly: Antibacterial activity against methicillin-resistant Staphylococcus aureus ATCC BAA1720 assessed as bacterial growth inhibition measured for 18 hrs by CLSI-protocol based Mueller-Hinton Broth micro-dilution assay. It counts as functional.
The subject of data set [22] is Escherichia coli. Put plainly: Antibacterial activity against Escherichia coli K12 assessed as bacterial growth inhibition measured for 18 hrs by CLSI-protocol based Mueller-Hinton Broth micro-dilution assay. It counts as functional.
For data set [23], the system named is Bacillus subtilis. Kind of data set: Antibacterial activity against Bacillus subtilis 168 assessed as bacterial growth inhibition measured for 18 hrs by CLSI-protocol based Mueller-Hinton Broth micro-dilution assay. It counts as functional.
Data set [24] relates to Erythrocyte. Kind of data set: Hemolytic activity in sheep RBC incubated for 30 mins. It counts as toxicity, cell-based, Ovis aries. The following applies: 0.5 h.
Data set [25] has as its system Staphylococcus aureus. Put plainly: Antibacterial activity against Staphylococcus aureus ATCC 29213 assessed as bacterial growth inhibition measured for 18 hrs by CLSI-protocol based Mueller-Hinton Broth micro-dilution assay. It counts as functional.
Data set [26] deals with Escherichia coli. Put plainly: Antibacterial activity against Escherichia coli MG1655 assessed as bacterial growth inhibition measured for 18 hrs by CLSI-protocol based Mueller-Hinton Broth micro-dilution assay. The data set is classed as functional.
In data set [27] the test system is Pseudomonas aeruginosa. Kind of data set: Antibacterial activity against Pseudomonas aeruginosa ATCC 27853 assessed as bacterial growth inhibition measured for 18 hrs by CLSI-protocol based Mueller-Hinton Broth micro-dilution assay. The data set is classed as functional.
For data set [28], the system named is Pseudomonas aeruginosa. Kind of data set: Antibacterial activity against Pseudomonas aeruginosa PAO1 assessed as bacterial growth inhibition measured for 18 hrs by CLSI-protocol based Mueller-Hinton Broth micro-dilution assay. The data set is classed as functional.
The subject of data set [29] is Salmonella typhimurium. Put plainly: Antibacterial activity against Salmonella enterica subsp. enterica serovar Typhimurium LT2 assessed as bacterial growth inhibition measured for 18 hrs by CLSI-protocol based Mueller-Hinton Broth micro-dilution assay. It counts as functional.
The subject of data set [30] is Bacillus subtilis. Put plainly: Antibacterial activity against Bacillus subtilis ATCC 23857 assessed as reduction in bacterial cell growth incubated for 24 hrs by broth micro-dilution analysis. The data set is classed as functional.
Data set [31] has as its system Escherichia coli. Put plainly: Antibacterial activity against Escherichia coli DH5alpha assessed as bacterial growth inhibition. It counts as functional.

As for `CC[C@H](C)[C@H](NC(=O)[C@H](CCCNC(=N)N)NC(=O)[C@H](CCCCN)NC(=O)[C@H](CC(C)C)NC(=O)[C@H](CC(C)C)NC(=O)CN)C(=O)N[C@@H](CCCCN)C(=O)N[C@@H](CCCCN)C(=O)N[C@@H](CC(C)C)C(=O)N[C@@H](CC(C)C)C(N)=O` (H-GLLKRIKKLL-NH2), the MIC amounted to 28.4 µM (≈ 33.5 µg/mL) in [1], 66.3 µM (≈ 78.3 µg/mL) in data set [2], 4.2 µM (≈ 4.96 µg/mL) in data set [3] and 8.5 µM (≈ 10 µg/mL) in data set [5]. Also, the HC50 in data set [4] was greater than 312 µM.

`CC[C@H](C)[C@H](NC(=O)[C@H](CCCNC(=N)N)NC(=O)[C@H](CCCCN)NC(=O)[C@H](CC(C)C)NC(=O)[C@H](CC(C)C)NC(=O)CN)C(=O)N[C@@H](CCCCN)C(=O)N[C@H](C(=O)N[C@@H](CC(C)C)C(=O)N[C@@H](C)C(N)=O)[C@@H](C)O` (H-GLLKRIKTLA-NH2): the minimum inhibitory concentration (MIC) in data set [6] is 43.2 µM (≈ 48 µg/mL); in data set [7], 256 µM (≈ 285 µg/mL); in data set [9], 43.2 µM (≈ 48 µg/mL); in [10], no less than 512 µM; in data set [11] it was 32 µM; in data set [12], 64 µM (≈ 71.1 µg/mL). Moreover, the MIC in data set [13] is 64 µM; in data set [14] it was no less than 512 µM. In addition, the HC50 in data set [8] was no less than 512 µM.

`CC[C@H](C)[C@H](NC(=O)[C@H](Cc1c[nH]c2ccccc12)NC(=O)[C@H](CCCCN)NC(=O)[C@H](CC(C)C)NC(=O)[C@H](CC(C)C)NC(=O)CN)C(=O)N[C@@H](CCCCN)C(=O)N[C@H](C(=O)N[C@@H](CC(C)C)C(=O)N[C@@H](CC(C)C)C(N)=O)[C@@H](C)O` (H-GLLKWIKTLL-NH2): the MIC in [15] turned out to be 62.2 µM (≈ 73.6 µg/mL); in data set [16] it was 9.5 µM (≈ 11.2 µg/mL); in data set [17] it was 19.6 µM (≈ 23.2 µg/mL); in data set [18], 28.4 µM (≈ 33.6 µg/mL); in data set [19], 62.2 µM (≈ 73.6 µg/mL); in data set [20] it was 14.2 µM (≈ 16.8 µg/mL). For the same compound, in data set [4], the HC50 was determined as 14 µM.

Regarding `CC[C@H](C)[C@@H]1NC(=O)[C@@](C)(NC(=O)[C@H](CCCCN)NC(=O)[C@H](CC(C)C)NC(=O)[C@H](CC(C)C)NC(=O)CN)CCC/C=C\CCC[C@@](C)(C(=O)N[C@@H](CC(C)C)C(N)=O)NC(=O)[C@H]([C@@H](C)O)NC(=O)[C@H](CCCCN)NC1=O` (H-GLLK[S5]IKT[S5]L-NH2; staple (Z) 5-9), the MIC in data set [21] amounted to 4 µM (≈ 4.54 µg/mL); in [22], 8 µM (≈ 9.08 µg/mL); in data set [23] it was 4 µM (≈ 4.54 µg/mL); in data set [25] it was 4 µM (≈ 4.54 µg/mL); in data set [26], 32 µM (≈ 36.3 µg/mL); in data set [27], 32 µM (≈ 36.3 µg/mL). The MIC in data set [28] stood at 16 µM (≈ 18.2 µg/mL); in data set [29] it was 32 µM (≈ 36.3 µg/mL). This compound showed an HC10 in data set [24] of 8 µM.

As to `CC[C@H](C)[C@H](NC(=O)[C@H](CCCNC(=N)N)NC(=O)[C@H](CCCCN)NC(=O)[C@H](CC(C)C)NC(=O)[C@H](CC(C)C)NC(=O)CN)C(=O)N[C@@H](CCCCN)C(=O)N[C@H](C(=O)N[C@@H](CC(C)C)C(=O)N[C@@H](CC(C)C)C(N)=O)[C@@H](C)O` [ANOPLIN], the MIC amounted to 43.4 µM (≈ 50.1 µg/mL) in data set [30] and 86.7 µM (≈ 100 µg/mL) in data set [31].

For the origin of these results see ChEMBL document CHEMBL5608163, “Structure modification of anoplin for fighting resistant bacteria” (Eur J Med Chem, 2024).
